This passage reports IC50 and DC50 results from patent publication US20220016102A1, “ER PROTEIN REGULATORS AND USE THEREOF” (ShanghaiTech University, priority 2018, published 2022).

Holding throughout (type): cell-based
One assay has as its system MCF-7 cell line. Kind of assay: Assay for determination of inhibition of MCF-7 cell proliferation (CCK-8). The following applies: Homo sapiens, MCF7, 96 h; MCF-7 cells, 4 days, CCK-8, FIG. 3. The procedure: MCF-7 were cultured in ncubator with 5% CO2 at 37° C. Complete medium was EMEM supplemented with 10% FBS, 100 U/mL Penicillin and Streptomycin, and 0.77 μg/mL recombinant human insulin.
10 μL CCK-8 reagent was added to the test well without adding the drugs, and after 4 h the O.D.value of the test well was recorded as the initial cell level. • After 4 days, 10 μL CCK-8 reagent was added, and the O.D.values was measured, and inhibition level was calculated.

Assay [1] addresses T1, ER protein (Homo sapiens, UniProt P03372).
T1 sequence (P03372 1-595): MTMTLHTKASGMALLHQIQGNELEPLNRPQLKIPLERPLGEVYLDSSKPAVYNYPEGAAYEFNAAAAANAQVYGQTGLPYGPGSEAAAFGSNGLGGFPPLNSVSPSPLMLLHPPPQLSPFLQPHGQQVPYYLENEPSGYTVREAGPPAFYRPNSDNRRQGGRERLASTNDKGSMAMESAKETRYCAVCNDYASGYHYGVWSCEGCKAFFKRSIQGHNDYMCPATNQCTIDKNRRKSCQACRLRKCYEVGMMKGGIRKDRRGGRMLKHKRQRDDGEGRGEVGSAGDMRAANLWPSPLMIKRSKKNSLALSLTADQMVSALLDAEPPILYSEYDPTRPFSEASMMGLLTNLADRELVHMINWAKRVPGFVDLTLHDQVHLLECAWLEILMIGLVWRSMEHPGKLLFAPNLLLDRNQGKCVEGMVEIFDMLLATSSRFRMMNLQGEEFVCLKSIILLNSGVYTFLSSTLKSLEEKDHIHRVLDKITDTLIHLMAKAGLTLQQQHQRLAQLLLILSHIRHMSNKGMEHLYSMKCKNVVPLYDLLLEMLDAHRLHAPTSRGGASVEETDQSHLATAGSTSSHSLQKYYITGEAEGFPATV
Put plainly: Western blotting analysis of ER protein degradation in T47D cell line. Details: western blotting detection of the level of intracellular ER protein; endogenous in cells; host or cells: T47D. The following applies: degradation of ER protein, T47D cells, drug treatment for 16 hours, Western blot gray values vs DMSO control; read-out: DC50 (nM)/T47Dcell line. In a few lines: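 T47D cells seeded at 1.5×10^5 cells/mL, adhered 24 h, then treated with compound; ER protein level read by Western blot band gray value versus DMSO control. DC50 taken as concentration giving half the control gray value, read from bands or from a fitted concentration–gray value curve.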

In assay [2] the target is T1, ER protein. Kind of assay: Western blotting analysis of ER protein degradation in MCF-7 cell line. Further details: western blotting detection of the level of intracellular ER protein; endogenous in cells. The settings on record: MCF-7 cells, Western blot gray values vs DMSO control. The procedure: MCF-7 were cultured in ncubator with 5% CO2 at 37° C. Complete medium was EMEM supplemented with 10% FBS, 100 U/mL Penicillin and Streptomycin, and 0.77 μg/mL recombinant human insulin. […]
DC50 value (the drug concentration required for degrading proteins by 50%, abbreviated as DC50) reads method: comparing the gray values of the Western blotting bands for the drug treatment with the gray values of the Western blotting band for the DMSO control, and reading the drug concentration range corresponding to the gray value of the Western blotting bands for the drug treatment which is equal to half of the gray value of the Western blotting band for the DMSO control.
DC50 value could also be calculated as follows: using software ImageJ to quantify the gray values of the Western blotting bands for the drug treatment, fitting the relationship curve between drug concentrations and gray values, and from the fitted curve, calculating the drug concentration corresponding to half of the gray value of the Western blotting band for the DMSO control.

For the molecule `CCC(=C(c1ccc(O)cc1)c1ccc(OCCNC(=O)CCCCCCCCC(=O)N[C@H](C(=O)N2C[C@H](O)C[C@H]2C(=O)NCc2ccc(-c3scnc3C)cc2)C(C)(C)C)cc1)c1ccc(O)cc1` [SIAIS208168, N1-(2-(4-(1,2-bis(4-hydroxyphenyl)but-1-en-1-yl)phenoxy)ethyl)-N10-((S)-1-((2S,4R)-4-hydroxy-2-((4-(4-methylthiazol-5-yl)benzyl)carbamoyl)pyrrolidin-1-yl)-3,3-dimethyl-1-oxobutan-2-yl)decanediamide], half-maximal inhibition in the assay on MCF-7 cell line (IC50) was put at 0.75 nM. For the same molecule, the DC50 at ER protein [1] was less than 1 nM.

For the molecule `Cc1ncsc1-c1ccc(CNC(=O)[C@@H]2C[C@@H](O)CN2C(=O)[C@@H](NC(=O)CCCCCCC(=O)N2CCN(CCOc3ccc(C(=C(CCCl)c4ccccc4)c4ccc(O)cc4)cc3)CC2)C(C)(C)C)cc1` [SIAIS251045, (2S,4R)-1-((S)-2-(8-(4-(2-(4-(4-chloro-1-(4-hydroxyphenyl)-2-phenylbut-1-en-1-yl)phenoxy)ethyl)piperazin-1-yl)-8-oxooctanamido)-3,3-dimethylbutanoyl)-4-hydroxy-N-(4-(4-methylthiazol-5-yl)benzyl)pyrrolidine-2-carboxamide], the IC50 in the assay on MCF-7 cell line is 4.2 nM. Also, at ER protein [1], the DC50 is less than 10 nM.

The molecule `CCC(=C(c1ccc(O)cc1)c1ccc(OCCNC(=O)CCOCCOCCC(=O)N[C@H](C(=O)N2C[C@H](O)C[C@H]2C(=O)NCc2ccc(-c3scnc3C)cc2)C(C)(C)C)cc1)c1ccc(O)cc1` [SIAIS208173, (2S,4R)-1-((S)-16-(4-(1,2-bis(4-hydroxyphenyl)but-1-en-1-yl)phenoxy)-2-(tert-butyl)-4,13-dioxo-7,10-dioxa-3,14-diazahexadecanoyl)-4-hydroxy-N-(4-(4-methylthiazol-5-yl)benzyl)pyrrolidine-2-carboxamide] registered an IC50 with MCF-7 cell line of 3.6 nM. Further, on ER protein [1], the DC50 is less than 10 nM.

Molecule `CN(C)CCOc1ccc(/C(=C(/CCCl)c2ccccc2)c2ccccc2)cc1` [Toremifene, reference compound] came in with a concentration for half-maximal inhibition (IC50) with MCF-7 cell line of 869 nM.

On to `Cc1ncsc1-c1ccc(CNC(=O)[C@@H]2C[C@@H](O)CN2C(=O)[C@@H](NC(=O)CCCCCCCC(=O)NCCOc2ccc(C(=C(CCCl)c3ccccc3)c3ccc(O)cc3)cc2)C(C)(C)C)cc1` [SIAIS208035, N1-(2-(4-(4-chloro-1-(4-hydroxyphenyl)-2-phenylbut-1-en-1-yl)phenoxy)ethyl)-N9-((S)-1-((2S,4R)-4-hydroxy-2-((4-(4-methylthiazol-5-yl)benzyl)carbamoyl)pyrrolidin-1-yl)-3,3-dimethyl-1-oxobutan-2-yl)nonanediamide], for which the DC50 at ER protein [2] and at ER protein [1] was less than 10 nM in each case. In the assay with MCF-7 cell line, this molecule came in with an IC50 of 0.75 nM.

`Cc1ncsc1-c1ccc(CNC(=O)[C@@H]2C[C@@H](O)CN2C(=O)[C@@H](NC(=O)CCC(=O)NCCOc2ccc(C(=C(CCCl)c3ccccc3)c3ccc(O)cc3)cc2)C(C)(C)C)cc1` [SIAIS208020, N1-(2-(4-(4-chloro-1-(4-hydroxyphenyl)-2-phenylbut-1-en-1-yl)phenoxy)ethyl)-N4-((S)-1-((2S,4R)-4-hydroxy-2-((4-(4-methylthiazol-5-yl)benzyl)carbamoyl)pyrrolidin-1-yl)-3,3-dimethyl-1-oxobutan-2-yl)succinamide]: the DC50 on ER protein [2] is less than 50 nM; on ER protein [1], less than 10 nM.
